What all share (experiment): biochemical
Assay [1] addresses T1, human acetylcholinesterase (hAcChE) (Homo sapiens, UniProt P22303).
T1 construct: purchased Sigma Biochemicals (St. Louis, Mo.)
It counts as biochemical. How it is done:
Data was transferred to GraphPad Prism software, and Ki values were calculated as described in the Example above.

Assay [2] has as its target T2, human liver carboxylesterase (hCE1) (Homo sapiens, UniProt P23141).
T2 sequence (P23141 18-567): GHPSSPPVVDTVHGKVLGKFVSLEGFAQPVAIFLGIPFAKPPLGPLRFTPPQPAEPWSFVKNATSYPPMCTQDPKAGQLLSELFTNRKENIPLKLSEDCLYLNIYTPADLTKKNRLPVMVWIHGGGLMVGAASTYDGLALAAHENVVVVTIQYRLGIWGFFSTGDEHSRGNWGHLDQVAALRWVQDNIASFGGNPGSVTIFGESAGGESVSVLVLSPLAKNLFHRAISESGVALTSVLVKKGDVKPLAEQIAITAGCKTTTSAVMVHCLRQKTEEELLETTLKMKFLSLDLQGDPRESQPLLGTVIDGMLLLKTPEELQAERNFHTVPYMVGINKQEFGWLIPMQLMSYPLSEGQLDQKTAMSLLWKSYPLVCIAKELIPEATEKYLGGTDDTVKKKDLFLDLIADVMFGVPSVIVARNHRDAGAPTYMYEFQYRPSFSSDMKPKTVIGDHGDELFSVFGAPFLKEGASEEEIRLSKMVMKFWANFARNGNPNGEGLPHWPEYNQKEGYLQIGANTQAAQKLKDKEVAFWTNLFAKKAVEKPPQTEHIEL
It counts as biochemical.

Assay [3] has as its target human butyrylcholinesterase (hBuChE) (Homo sapiens, UniProt P06276).
For assay [4], the target named is T3, rabbit liver carboxylesterase (rCE) (Oryctolagus cuniculus, UniProt P12337).
T3 sequence (P12337 19-565): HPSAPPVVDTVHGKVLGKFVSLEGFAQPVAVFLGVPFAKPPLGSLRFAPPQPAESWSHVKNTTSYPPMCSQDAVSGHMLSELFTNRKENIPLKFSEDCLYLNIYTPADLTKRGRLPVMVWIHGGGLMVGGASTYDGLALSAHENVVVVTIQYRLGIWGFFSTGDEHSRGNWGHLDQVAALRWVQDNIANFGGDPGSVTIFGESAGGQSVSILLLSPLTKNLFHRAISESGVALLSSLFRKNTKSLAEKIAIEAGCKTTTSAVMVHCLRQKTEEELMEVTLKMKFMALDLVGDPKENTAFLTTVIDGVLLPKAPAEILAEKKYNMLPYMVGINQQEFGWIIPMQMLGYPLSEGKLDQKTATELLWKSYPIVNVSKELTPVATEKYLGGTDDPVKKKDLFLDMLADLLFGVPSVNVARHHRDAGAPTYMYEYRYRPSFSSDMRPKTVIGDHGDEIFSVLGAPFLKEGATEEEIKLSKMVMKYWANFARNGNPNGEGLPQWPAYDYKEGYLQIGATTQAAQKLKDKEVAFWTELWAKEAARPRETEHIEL
The class given is biochemical.

The target in assay [5] is T4, human small intestine carboxylesterase (hiCE) (Homo sapiens, UniProt O00748).
T4 sequence (O00748 27-559): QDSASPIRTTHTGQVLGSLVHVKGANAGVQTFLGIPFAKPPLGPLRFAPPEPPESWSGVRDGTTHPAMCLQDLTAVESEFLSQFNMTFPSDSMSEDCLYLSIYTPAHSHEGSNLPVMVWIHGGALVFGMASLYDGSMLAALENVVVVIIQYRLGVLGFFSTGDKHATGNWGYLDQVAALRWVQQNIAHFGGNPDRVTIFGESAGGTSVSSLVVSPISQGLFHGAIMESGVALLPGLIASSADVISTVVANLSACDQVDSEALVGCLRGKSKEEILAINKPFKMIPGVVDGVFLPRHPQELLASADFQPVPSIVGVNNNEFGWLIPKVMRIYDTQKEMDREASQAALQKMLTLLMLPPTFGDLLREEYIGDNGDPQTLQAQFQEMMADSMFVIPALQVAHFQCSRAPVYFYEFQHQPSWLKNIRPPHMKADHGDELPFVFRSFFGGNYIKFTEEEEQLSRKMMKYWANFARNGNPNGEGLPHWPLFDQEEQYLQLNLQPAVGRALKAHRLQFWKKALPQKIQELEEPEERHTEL
The class given is biochemical.

Where [6] appears, read: acetylthiocholine as substrate, Table 6, read-out: hAcChE Ki.
Where [7] appears, read: o-NPA as substrate, Table 6, read-out: hCE1 Ki ± SE.
[8] abbreviates: butyrylthiocholine as substrate, Table 6, read-out: hBuChE Ki.
Where [9] appears, read: o-NPA as substrate, Table 6, read-out: rCE Ki ± SE.
[10] abbreviates: o-NPA as substrate, Table 6, read-out: hiCE Ki ± SE.

Read-outs that look alike come from different tables or passages of the source.

T1 sequence (P22303 32-614): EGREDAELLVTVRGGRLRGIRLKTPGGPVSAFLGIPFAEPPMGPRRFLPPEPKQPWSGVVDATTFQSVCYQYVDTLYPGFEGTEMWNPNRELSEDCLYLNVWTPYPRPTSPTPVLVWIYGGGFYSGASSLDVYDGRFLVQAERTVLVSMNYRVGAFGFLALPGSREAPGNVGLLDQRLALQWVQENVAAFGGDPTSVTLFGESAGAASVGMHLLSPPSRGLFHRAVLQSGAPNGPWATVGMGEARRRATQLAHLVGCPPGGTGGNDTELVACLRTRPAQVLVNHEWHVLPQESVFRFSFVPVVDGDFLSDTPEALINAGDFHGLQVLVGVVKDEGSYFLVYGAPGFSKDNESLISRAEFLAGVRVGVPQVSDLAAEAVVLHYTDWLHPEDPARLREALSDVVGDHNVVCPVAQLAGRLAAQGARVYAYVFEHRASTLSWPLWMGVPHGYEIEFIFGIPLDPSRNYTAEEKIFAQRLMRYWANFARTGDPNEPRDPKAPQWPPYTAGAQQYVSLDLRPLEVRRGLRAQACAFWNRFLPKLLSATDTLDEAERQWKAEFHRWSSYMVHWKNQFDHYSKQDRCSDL
Sequence of human butyrylcholinesterase (hBuChE) (P06276 29-602): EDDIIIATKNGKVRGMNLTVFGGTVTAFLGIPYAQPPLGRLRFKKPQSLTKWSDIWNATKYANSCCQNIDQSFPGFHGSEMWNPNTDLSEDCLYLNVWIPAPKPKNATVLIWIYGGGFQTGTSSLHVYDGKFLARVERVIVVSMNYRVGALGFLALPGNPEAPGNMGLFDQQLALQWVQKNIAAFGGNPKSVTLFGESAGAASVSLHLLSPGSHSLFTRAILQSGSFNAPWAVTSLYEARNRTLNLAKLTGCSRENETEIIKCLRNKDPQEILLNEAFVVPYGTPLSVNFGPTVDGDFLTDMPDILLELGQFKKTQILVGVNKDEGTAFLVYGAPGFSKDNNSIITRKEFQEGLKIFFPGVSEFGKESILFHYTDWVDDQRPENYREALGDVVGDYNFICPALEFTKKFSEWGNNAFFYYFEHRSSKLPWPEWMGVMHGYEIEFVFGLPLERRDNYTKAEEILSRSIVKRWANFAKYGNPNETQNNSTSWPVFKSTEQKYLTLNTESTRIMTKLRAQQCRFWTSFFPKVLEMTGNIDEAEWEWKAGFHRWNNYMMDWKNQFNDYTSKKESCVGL

On to `Cc1ccc(C(=O)C(=O)c2ccccc2)cc1` [Compound 32, 1-(4-methylphenyl)-2-phenylethane-1,2-dione], for which the Ki (as a rule, a measure of affinity in units of concentration, obtained from inhibition or displacement) is > 100 µM in assay [1] (setting [6]), 0.125 ± 0.015 µM in assay [2] (setting [7]), > 100 µM in assay [3] (setting [8]) and 0.119 ± 0.02 µM in assay [4] (setting [9]).
Take `O=C(C(=O)c1ccc(Br)c([N+](=O)[O-])c1)c1ccc(Br)c([N+](=O)[O-])c1` [Compound 4, 1,2-bis(4-bromo-3-nitrophenyl)ethane-1,2-dione]: the Ki in assay [1] is > 100 µM; in assay [5], > 100 µM; in assay [2] (setting [7]), > 100 µM; in assay [3] (setting [8]) it was > 100 µM; in assay [4] (setting [9]), 0.0087 ± 0.0013 µM.
Regarding `O=C(C(=O)c1ccc(Cl)cc1)c1ccc(Cl)cc1` [Compound 18, 1,2-bis(4-chlorophenyl)ethane-1,2-dione], the Ki in assay [1] (setting [6]) is > 100 µM; in assay [2] (setting [7]) it was > 100 µM; in assay [3] it was > 100 µM; in assay [4] (setting [9]) it was 0.0141 ± 0.0025 µM.
As to `O=C(C(=O)c1c(Cl)c(Cl)c(Cl)c(Cl)c1Cl)c1c(F)c(F)c(F)c(F)c1F` [Compound 12, 1-(pentachlorophenyl)-2-(pentafluorophenyl)ethane-1,2-dione], the Ki in assay [1] is > 100 µM; in assay [2] (read-out: hCE1 Ki ± SE), 1.69 µM; in assay [3] (setting [8]), > 100 µM; in assay [4] (setting [9]), 0.823 ± 0.215 µM.
Take `O=C1C=Cc2ccccc2C1=O` [Compound 29, Naphthalene-1,2-dione]: the “inhibition of hAcChE” value in assay [1] is given as “inhibited”. Further, in assay [5], the “inhibition of hiCE” value is recorded as “inhibition”. In assay [2], the “inhibition of hCE1” value is reported as “inhibition”. Besides, in assay [4], the “inhibition of rCE” value is “inhibition”.
Turning to `O=C(C(=O)c1ccc(Br)cc1)c1ccc(Br)cc1` [Compound 15, 1,2-bis(4-bromophenyl)ethane-1,2-dione], the Ki was > 100 µM in assay [1] (setting [6]), > 100 µM in assay [2] (setting [7]), > 100 µM in assay [3] and 0.0041 ± 0.0005 µM in assay [4] (setting [9]).
Consider `O=C(C(=O)c1ccc(O)c([N+](=O)[O-])c1)c1ccc(O)c([N+](=O)[O-])c1` [Compound 36, 1,2-bis(4-hydroxy-3-nitrophenyl)ethane-1,2-dione], for which the Ki in assay [1], in assay [5], in assay [3] (setting [8]) and in assay [4] was > 100 µM each time.
`CN(C)c1ccc(C(=O)C(=O)c2ccc(N(C)C)cc2)cc1` [Compound 13, 1,2-bis[4(dimethylamino)phenyl]ethane-1,2-dione]: the Ki was > 100 µM in assay [1] (setting [6]); > 100 µM in assay [5] (setting [10]); > 100 µM in assay [2] (setting [7]); > 100 µM in assay [3] (setting [8]); 2.4 µM in assay [4] (setting [9]).
`O=C(C(=O)c1ccc(C(=O)C(=O)c2ccccc2)cc1)c1ccccc1` [Compound 38, 1-{4-[oxo(phenyl)acetyl]phenyl}-2-phenylethane-1,2-dione]: the Ki in assay [1] (setting [6]) was > 100 µM; in assay [4] (setting [9]), 0.0061 ± 0.0006 µM.
`COc1ccc(C(=O)C(=O)c2ccccc2Cl)cc1OC` [Compound 8, 1-(2-chlorophenyl)-2-(3,4-dimethoxyphenyl)ethane-1,2-dione]: the results for the Ki in assay [2] (setting [7]), in assay [3] and in assay [4] (setting [9]) were 3.3 µM, > 100 µM and 0.036 ± 0.012 µM, respectively.
For `O=C(C(=O)c1cc(Br)ccc1O)c1cc(Br)ccc1O` [Compound 9, 1,2-bis(5-bromo-2-hydroxyphenyl)ethane-1,2-dione], the Ki is > 100 µM in assay [1], > 100 µM in assay [2], > 100 µM in assay [3] (setting [8]) and 0.0535 ± 0.0094 µM in assay [4] (setting [9]).
Take `COc1cccc(C(=O)C(=O)c2cccc(OC)c2)c1` [Compound 33, 1,2-bis(3-methoxyphenyl)ethane-1,2-dione]: the values for the Ki in assay [2] (setting [7]), in assay [3] and in assay [4] (setting [9]) were 1.54 µM, > 100 µM and 0.0721 ± 0.0091 µM, respectively.
In the case of `O=C(C(=O)c1ccccc1Cl)c1ccccc1Cl` [Compound 30, 1,2-bis(2-chlorophenyl)ethane-1,2-dione], the Ki in assay [1] was > 100 µM; in assay [2] (read-out: hCE1 Ki ± SE) it was 1.65 µM; in assay [3] (setting [8]), > 100 µM; in assay [4] (setting [9]), 0.22 ± 0.037 µM.
In the case of `O=C(C(=O)c1cccc([N+](=O)[O-])c1)c1cccc([N+](=O)[O-])c1` [Compound 34, 1,2-bis(3-nitrophenyl)ethane-1,2-dione], the Ki in assay [1] is > 100 µM; in assay [2] (setting [7]), 18.1 µM; in assay [3] (setting [8]), > 100 µM; in assay [4] (read-out: rCE Ki ± SE) it was 0.267 ± 0.03 µM.
Turning to `O=C(C(=O)c1ccc(O)cc1)c1ccc(O)cc1` [Compound 35, 1,2-bis(4-hydroxyphenyl)ethane-1,2-dione], the Ki is > 100 µM in assay [1] (setting [6]); 1.2 µM in assay [5] (setting [10]); > 100 µM in assay [2] (setting [7]); > 100 µM in assay [3]; > 100 µM in assay [4] (setting [9]).
With `Cc1cc([N+](=O)[O-])ccc1NC(=O)Nc1cccc(F)c1` [Compound 55, N-(3-fluorophenyl)-N′-(2-methyl-4-nitrophenyl)urea], the Ki in assay [1] (acetylthiocholine substrate, Table 5, read-out: Ki hAcChE) is > 100 µM; in assay [5] (o-NPA as substrate, Table 5, read-out: Ki hiCE) it was 1.28 µM; in assay [2] (o-NPA as substrate, Table 5, read-out: Ki hCE1), > 100 µM.
Turning to `O=C(C(=O)c1ccc(O)cc1O)c1ccc(O)cc1O` [Compound 10, 1,2-bis(2,4-dihydroxyphenyl)ethane-1,2-dione], the Ki in assay [1] (setting [6]) is > 100 µM; in assay [5] (setting [10]), 1.73 µM; in assay [2] (setting [7]), > 100 µM; in assay [3], > 100 µM; in assay [4] (setting [9]), > 100 µM.
Turning to `O=C(C(=O)c1ccc(Cl)cc1)c1ccccc1` [Compound 31, 1-(4-chlorophenyl)-2-phenylethane-1,2-dione], the Ki was > 100 µM in assay [1] (setting [6]), 0.0474 ± 0.0068 µM in assay [2] (setting [7]), > 100 µM in assay [3] and 0.0239 ± 0.0029 µM in assay [4] (setting [9]).
As for `COc1ccc(C(=O)C(=O)c2ccc(OC)cc2)cc1` [Compound 21, 1,2-bis(4-methoxyphenyl)ethane-1,2-dione], the Ki in assay [1] (setting [6]) was > 100 µM; in assay [2] (setting [7]) it was 3.41 µM; in assay [3], > 100 µM; in assay [4] (setting [9]), 0.58 ± 0.157 µM.
As to `COc1ccc(C(=O)C(=O)c2ccc(OC)c([N+](=O)[O-])c2)cc1[N+](=O)[O-]` [Compound 37, 1,2-bis(4-methoxy-3-nitrophenyl)ethane-1,2-dione], the Ki in assay [1], in assay [5], in assay [2] and in assay [3] (setting [8]) was > 100 µM in each case.
Take `O=C(C(=O)c1ccc([N+](=O)[O-])cc1[N+](=O)[O-])c1ccccc1` [Compound 11, 1-(2,4-dinitrophenyl)-2-phenylethane-1,2-dione]: the Ki in assay [1] is > 100 µM; in assay [2] (setting [7]), > 100 µM; in assay [3] (setting [8]) it was > 100 µM; in assay [4] (setting [9]) it was 0.52 ± 0.031 µM.

(Values after patent publication US7973034B2, “Amide, aryl sulfonamide, aryl urea, and α,β-diketone derived carboxylesterase inhibitors, and their methods of use” (priority 2003, dated 2011).)
